Tests used:
[1] = molecular target: FLT3 (Homo sapiens, UniProt P36888); assay: In vitro kinase assay
[2] = system: MV-4-11; assay: MTT assay for cell proliferation; assay type: cell-based; conditions: Homo sapiens, MV4-11, 72 h, read-out: IC50(μM) ± SD, tumor cell proliferation
Procedure: (§1) For in vitro inhibition assays, cells were seeded in 96-well culture plates with a density of 15,000–20,000 cells/well after the cells reached 70–90% confluence. […] MTT (3-(4, 5-dimethylthiazol-2-yl)-2, 5-diphenyltetrazolium bromide) (Cat. No. 1334GR001; BioFroxx) assay was conducted in order to examine viability. The IC50 values were fitted using GraphPad Prism 7.0.

[3] = system: Ba/F3-FLT3-ITD; assay: MTT assay for cell proliferation; assay type: cell-based, Murine; conditions: Mus musculus, Ba/F3 FLT3-ITD, 72 h, read-out: IC50(μM) ± SD, tumor cell proliferation
Procedure: as §1

Sequence of FLT3 (P36888 27-993): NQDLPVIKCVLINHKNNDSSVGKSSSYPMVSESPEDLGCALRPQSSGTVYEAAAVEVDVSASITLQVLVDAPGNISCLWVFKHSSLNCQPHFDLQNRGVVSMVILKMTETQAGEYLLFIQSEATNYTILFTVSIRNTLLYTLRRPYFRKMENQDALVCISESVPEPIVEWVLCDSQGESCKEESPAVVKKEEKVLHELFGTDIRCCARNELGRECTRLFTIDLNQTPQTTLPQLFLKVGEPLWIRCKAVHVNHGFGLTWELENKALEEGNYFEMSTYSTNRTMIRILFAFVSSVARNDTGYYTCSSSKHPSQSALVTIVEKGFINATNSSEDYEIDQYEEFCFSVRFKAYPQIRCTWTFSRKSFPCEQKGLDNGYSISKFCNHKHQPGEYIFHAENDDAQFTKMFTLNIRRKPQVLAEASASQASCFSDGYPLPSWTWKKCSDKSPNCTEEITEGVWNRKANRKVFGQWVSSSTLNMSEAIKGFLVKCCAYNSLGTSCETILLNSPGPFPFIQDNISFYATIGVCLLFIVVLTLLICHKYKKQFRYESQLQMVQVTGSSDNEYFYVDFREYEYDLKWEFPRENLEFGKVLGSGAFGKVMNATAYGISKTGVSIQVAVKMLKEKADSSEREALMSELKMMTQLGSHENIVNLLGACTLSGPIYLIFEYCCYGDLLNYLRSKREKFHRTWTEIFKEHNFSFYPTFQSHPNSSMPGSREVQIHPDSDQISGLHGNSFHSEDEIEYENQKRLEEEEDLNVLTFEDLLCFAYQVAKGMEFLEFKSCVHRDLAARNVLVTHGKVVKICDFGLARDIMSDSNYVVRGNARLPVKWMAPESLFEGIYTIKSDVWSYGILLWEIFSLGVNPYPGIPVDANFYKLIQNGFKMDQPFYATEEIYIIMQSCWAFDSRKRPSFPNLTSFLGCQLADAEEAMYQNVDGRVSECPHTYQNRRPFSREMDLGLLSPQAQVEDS

In the case of Cc1cnc(Nc2ccc(N3CCC(N(C)CCO)CC3)c(F)c2)nc1-c1cnn(C(C)C)c1 [FM, 2-((1-(2-fluoro-4-((4-(1-isopropyl-1H-pyrazol-4-yl)-5-methylpyrimidin-2-yl)amino)phenyl)piperidin-4-yl)(methyl)amino)ethan-1-ol], the IC50 [1] is reported as 15 nM, the IC50 [2] is reported as 0.01 ± 0.01 µM and the IC50 [3] is reported as 0.12 ± 0.01 µM.
